According to patent US20260108588A1, “A COMPLEX COMPRISING A ALPHA-LACTALBUMIN AND A FATTY ACID OR LIPID FOR USE IN THE TREATMENT OR PREVENTION OF CANCER” (LINNANE PHARMA AB, priority 2022, published 2026):

Tests used:
HT29 cells = assay: Colony assay; assay type: cell-based, human; settings: HT29, 7, 21 and 35 μM
Method: (§1) Cells were seeded on 12-well plates (1×10^3 cells/well) and incubated overnight. Cells were treated with different complexes: BAMLET (7, 21, and 35 μM) or alpha1-oleate (7, 21, and 35 μM) in serum-free media and incubated for one hour at 37° C., 5% CO2. The incubation was continued after the addition of FCS to the media. On day ten post-treatment, the cells were washed once and fixed with cold methanol (300 μl) for 15 minutes on ice. Finally, colonies of cells were stained with hematoxylin (ThermoFisher Scientific, Cat #7211) for five minutes and images were captured under a dissecting microscope (Carl Zeiss). The experiment was repeated twice for each cell line.

DLD1 cells = assay: Colony assay; assay type: cell-based, human; settings: DLD1, 7, 21 and 35 μM
Method: as §1

[1] = test system: intestine of tumor bearing APC^Min/+ mice; assay: Real-time in vivo fluorescence imaging and immunohistochemistry of BAMLET in tumor-bearing mice
Text: (§2) Swiss rolls of longitudinally opened intestinal segments were fixed overnight in 10% neutral buffered formalin. Samples were embedded in paraffin and 5 μm thick sections were further processed for histology and immunohistochemistry using antibodies for bovine alpha-Lactalbumin (ThermoFisher Scientific, Cat #A10-128A), β-catenin (CellSignaling, Cat #9562), Cyclin D1 (ThermoFisher Scientific, Cat #SC8396), Ki-67 (BD Biosciences, Cat #556003), VEGF (Abcam, Cat #ab46154), PD-1 (Abcam, Cat #ab214421) and TTF-1 (Abcam, Cat #ab227652) as previously described^28 with slight modifications. Citrate buffer (Dako Target Retrieval Solution, Agilent, Cat #S1699) was used for antigen retrieval for Cyclin D1, Ki-67, VEGF, bovine alpha-Lactalbumin and β-catenin staining. EDTA buffer (Abcam, Cat #ab64216) was used for antigen retrieval for TTF-1 staining. Immunohistochemistry was quantified by ImageJ. For Hematoxylin-Eosin (H&E) staining, Hematoxylin (ThermoFisher Scientific, Cat #7211) was used followed by Eosin-Y (ThermoFisher Scientific, Cat #7111) for counterstaining. Images were captured using the AX10 microscope or the Hamamatzu Nanozoomer scanner (Carl Zeiss) and the DAB-positive beta-catenin antibody fields (4-10) for each organ cross-sections were quantified by ImageJ.
BAMLET was labeled using VivoTag 680XL Protein Labeling Kit (Perkin Elmer). Apc^Min/+ mice were orally gavaged with 10 mg of VivoTag 680-labelled BAMLET in 200 μl of PBS. The intestinal tissue samples were collected after 24 hours or 48 hours and imaged using an IVIS Spectrum imaging system (Perkin Elmer). BAMLET signal was acquired at fluorescent settings with 680 nm excitation.

[2] = Giant unilamellar vesicle experiments, membrane response; settings: 21 μM BAMLET, one hour
Method: Giant unilamellar vesicles (GUVs) were formed by hydrogel-assisted swelling according to established protocols^29,30, with modifications previously described^31. Briefly, glass cover slips were sonicated in 1 M NaOH solution (30 minutes), rinsed in Milli-Q water (three times) and further sonicated (30 minutes). Coverslips were plasma etched (1 min) using a BD-20 laboratory corona treater (Electro Technic Products Inc.) to render the surface clean and hydrophilic. A thin film of 1% (w/v) solution of molten ultra-low gelling temperature type IX-A agarose (Sigma) was deposited on the coverslip to provide a reaction bed for GUV formation. The cover slips were placed in AttoFluor® cell chambers (ThermoFisher Scientific). Following, 25 μl of egg phosphatidylcholine (#840051P—Avanti Polar Lipids) in chloroform (25 mg/ml) doped with 4% v/v rhodamine C (1 mg/ml, Sigma) were deposited onto the gelled agarose surface, and the solvent evaporated with nitrogen gas. The lipid-hydrogel film was rehydrated with 200 mM sucrose in PBS, pH 7.2 for one hour and then transferred into 200 mM glucose in PBS, pH 7.2 for sedimentation. GUVs were allowed to settle overnight before seeded on the coverslips for visualization after treatment with 21 μM BAMLET for one hour.

[3] = test system: lungs, livers, kidneys and spleens of Apc^Min/+ mice; assay: Macroscopy, histology and immunohistochemistry of organs outside the intestine of Apc^Min/+ mice, long-term drinking water; assay type: in vivo
Method: (§3) For BAMLET prophylaxis protocol, ten-week-old female Apc^Min/+ mice (n=10 mice per group) were provided daily with BAMLET (20 mg/day in 5 ml PBS) in the drinking water for eight weeks and sacrificed at 18 weeks of age. A similar treatment was used in the survival study groups where mice were observed until 37 weeks of age.
as §2

PD-1 = PD-1 staining of intestinal sections; assay type: in vivo, mice; settings: tumor and healthy tissue areas, long-term drinking water, vs sham
Method: For PD-1 immunofluorescence staining, paraffin sections were deparaffinized in xylene, rehydrated with reduced ethanol concentrations and then washed with deionized water. The slides were then immerged in target retrieval solution (Dako, S1699) and boiled for 20 minutes, followed by 30 minutes permeabilization with 0.25% Triton in PBS at room temperature. A blocking solution consisting in 5% goat serum in PBS was added on the sections for 1 h at room temperature, before adding the rabbit monoclonal anti-mouse PD-1 antibody (Abcam-ab214421, 1:150) in 1% goat serum and incubated overnight at 4° C. The slides were then washed with 0.025% PBS-T and stained with goat anti-rabbit […] secondary antibody (1:200 for 1 h at room temperature, Invitrogen cat. n. A11034). The nuclei were counterstained with DAPI for 15 minutes, washed in PBS, and then mounted with Fluoromount aqueous mounting media (Sigma, F4680). Images were captured with the Hamamatzu Nanozoomer scanner and the fluorescence intensity was quantified by ImageJ.

[4] = test system: intestinal tumors of Apc^Min/+ mice; assay: Intestinal cancer model in Apc^Min/+ mice, BAMLET in the drinking water (eight weeks and long term); assay type: in vivo; settings: vs sham
Method: Apc^Min/+ mice were obtained from Jackson Laboratories at about eight weeks of age. Genotyping was performed by PCR analysis of genomic DNA obtained from blood collected from the retro-orbital sinus. Multiple tumors were developed in the small intestine at eight to ten weeks. Mice were acclimated for about two weeks at the local animal facility at BMC, Lund University in order to reduce stress from transportation.
as §3
Mice were sacrificed by isoflurane inhalation. Tumor enumeration and sample collection was presented as previously described^28. Tumor numbers and size were determined using a dissecting microscope (Olympus) and evaluated by three blinded investigators.
The opened intestinal segments were spread flat between sheets of filter paper and fixed overnight in 10% neutral buffered formalin. Formalin-fixed sections were transferred to 70% ethanol and stained with 0.2% methylene blue (Sigma, #M9140). Stained sections were rinsed in deionized water and imaged by a dissecting microscope.
as §2

[5] = long-term BAMLET in drinking water

## BAMLET
HT29 cells
  colony-forming cells after ten days: lasting effect
DLD1 cells
  colony-forming cells after ten days: lasting effect
[1]; 18-week-old APC^Min/+ mice, oral gavage, after 24 and 48 hours
  retention of VivoTag 680-labeled BAMLET in the intestine: Significant retention
[1]; after the first oral dose
  time retained in tumor tissue: at least 48 hours
[1]; immunohistochemistry with BAMLET specific antibodies
  BAMLET staining in intestinal tissue sections: detected
[2]
  membrane response: triggered rapid blebbing, tubulation and eventual vesicle division
[3]; TTF-1 / β-catenin stained lung sections, vs sham
  number of lung areas with proliferating cells: markedly reduced
[3]; immunohistochemistry, in contrast to the intestine
  BAMLET staining in lungs, livers or kidneys: not detected
[3]; long-term BAMLET in drinking water, vs sham
  β-catenin staining in lungs, livers and kidneys: general reduction
[3]; long-term follow up, vs sham
  macroscopic changes in intestine, peritoneal cavity and major organs: much less apparent
[3]; lung sections, vs sham
  level of TTF-1 staining in areas with proliferating cells: markedly reduced
PD-1
  PD-1 staining: significantly lower
[4]; 20 mg/day in drinking water, after eight weeks
  polyp number and polyp size: markedly reduced
[4]; [5]
  loss of body weight: prevented
  survival (Kaplan-Meier analysis): increase in survival
  total polyp number and polyp size: reduced
